From patent publication US20040254197A1, “Injections for eye tissues containing drug bonded to polyethlene glycol” (SANTEN PHARMACEUTICAL CO., LTD., priority 2001, published 2004)

Legend:
[1] = system: krypton laser-induced choroidal neovascularization; test: Effects of subconjunctivally administered betamethasone-PEG conjugate on krypton laser-induced choroidal neovascularization in rats; format: in vivo; settings: single subconjunctival injection 50 μl (BM-PEG 40 mg/ml, BP 2.8 mg/ml), 14th day after photocoagulation, vehicle 71.9%
Protocol: 1) A one ml/kg mixed solution containing an aqueous ketamine hydrochloride solution (50 mg/ml) and an aqueous xylazine hydrochloride solution (50 mg/ml) in a ratio of 7:1 was administered intramuscularly to rats to anesthetize them systemically.
2) A 0.5% tropicamide-0.5% phenylephrine hydrochloride solution was instilled into the eyes to cause mydriasis, and then photocoagulation was performed with a krypton laser photocoagulation apparatus (red) under coagulation conditions of spot size of 100 μm, output of 100 mW and coagulation time of 0.1 sec.
3) Cover glass for observing tissues was used as a contact lens, the photocoagulation was carried out in a posterior pole portion of ocular fundus at eight spots per eye sparsely avoiding thick retinal vessels. The photocoagulation was carried out focusing on the retinal posterior portion in order to cut a Bruch's membrane. After the photocoagulation, the ocular fundus was photographed. […]
6) In the fluorescein fundus angiography, a photocoagulation site where fluorescence diapedesis was not observed was judged as negative, and a photocoagulation site where apparent fluorescence diapedesis was observed was judged as positive. When there are two photocoagulation sites where a little fluorescence diapedesis was observed, they were judged as positive. Each neovascularization exhibition rate was calculated according to the following equation. […]

[2] = Intraocular pharmacokinetic tests by fluorophotometry in rabbits after injection into the vitreous body; format: in vivo, white rabbits; settings: rabbit, intravitreous injection
Protocol: Intraocular pharmacokinetic tests by fluorophotometry in rabbits It is difficult in terms of measurement techniques to actually trace transfer of slight amounts of tissues using the drug-PEG conjugate prepared above. Accordingly, fluorescein, which has fluorescence and can be measured with high sensitivity, was used as a model drug, a fluorescein-PEG conjugate (hereinafter referred to as “FL-PEG”) was synthesized, and intraocular pharmacokinetics tests were performed. Fluorescein sodium (hereinafter referred to as “FL”) was used as a comparative substance.
A 2.6% sterilized glycerin solution (10 ml) was added to FL-PEG (18 mg), and this liquid was stirred to dissolve FL-PEG to prepare an injection. A 10 μg/ml injection containing FL was prepared in the similar manner.
1) A mixed solution containing an aqueous ketamine hydrochloride solution (50 mg/ml) and an aqueous xylazine hydrochloride (50 mg/ml) in a ratio of 7:3 was administered intramuscularly to white rabbits to anesthetize.
2) A tropicamide (0.5%)/phenylephrine hydrochloride (0.5%) ophthalmic solution was instilled into eyes to cause mydriasis in the eyes.
3) The eyes were anesthetized with an oxybuprocaine hydrochloride (0.5%) ophthalmic solution.
4) The above-mentioned FL-PEG or FL liquid preparation was injected into the center of a vitreous body of one eye from an ocular pars plana in an amount of […] respectively with a syringe equipped with a 30 G needle.
5) Intraocular fluorescence intensity was measured with a fluorophotometry apparatus with the laps of time immediately after the administration to the vitreous body and at 1, 2, 4, 7, 15, 18, 23, 28, 35, 42, 49 and 56 days. A calibration curves were prepared, changes in concentration in the vitreous body and a retina were determined. Next, respective half-lives were calculated from the changes in concentration by a moment method. The above-mentioned operation 2) was carried out before the intraocular fluorescence intensity was measured.
The numerical values in the table are the average of three samples respectively. The half-life of FL-PEG in the vitreous body was calculated using measured values on forth to 28th day. […] The half-life of FL in the vitreous body was calculated using measured values immediately after the administration and on first day after the administration.

SMILES: C[C@H]1C[C@H]2[C@@H]3CCC4=CC(=O)C=C[C@]4(C)[C@@]3(F)[C@@H](O)C[C@]2(C)[C@@]1(O)C(=O)COP(=O)(O)O [BP, Betamethasone phosphate]
- Neovascularization exhibition rate (%) [1]: 50.0%

SMILES: O=C1OC2(c3ccc(O)cc3Oc3cc(O)ccc32)c2ccccc21 [FL, Fluorescein sodium]
- Half-life in vitreous body ([2]; fluorophotometry, moment method, average of three samples): less than four
- Detection in the retina (changes in concentration, FIG. 2) ([2]; followed for 56 days): detected only on first day after the administration
- Detection in the vitreous body (changes in concentration, FIG. 1) ([2]; followed for 56 days): not detected on second day after the administration or later
- half-life ([2]; white, vitreous body, other: injection into the vitreous body (intravitreal), 1 µg/eye, fluorophotometry, moment method, average of three samples): < 4 h
